Measured values taken from US6355617B1, “Peptide derivatives” (Syngenta Limited, priority 1996, dated 2002).

What was measured:
[1] = molecular target: T1, HLA-DR4Dw4 (Homo sapiens, UniProt P01903+P01911, A100K/A169T/F76Y/I96L/K127E/L162R/M171V/N62H/P40V/Q125Y/R42H/S133A/S149N/S66Y/V115G/V209L/W38E); experiment: Test A: Purified HLA-DR peptide in vitro binding assay; settings: competition with biotin-FHA307-320, 48 hours incubation
T1 construct: a cDNA encoding the β chain is cloned into the transfer vector pAcUW1; made in house; host or cells: Sf21 insect cells, double-recombinant baculovirus
Method: Test A: Purified HLA-DR peptide in vitro binding assay. […]. At the end of the incubation period 100 μl of the incubate is transferred to Enzyme Linked ImmunoSorbant Assay (ELISA) plates (Nunc) previously coated with an anti-MHC antibody (L243-American Type Culture Collection (ATCC) HB55 as described in Lampson and Levy (1980) J. Immunol. 125, 293-299) at a concentration of 10 μg/ml for 1 hour at room temperature and blocked thereafter for 1 hour with 1% bovine serum albumin (BSA) in PBS and 0.05% Tween 20. […] The reaction is stopped by adding 2M sulphuric acid (10 μl per well) and the absorbance read at 450 nm to quantify the amount of peptide bound. The inhibitory activity-of peptides is obtained by plotting absorbance against concentration. […]
To create the double-recombinant baculovirus, a cDNA encoding the β chain is cloned into the transfer vector pAcUW1 [Weyer, U; Knight, S & Possee, R D (1990) J. Gen. […] Double-recombinant viruses are detected by spotting insect cells, infected with randomly picked viruses from the transfection, onto membranes and reacting them with a monoclonal antibody e.g. L243 which specifically recognises the HLA-DR heterodimer. Binding of the antibody to Sf21 insect cells is detected using standard flow cytometry techniques, readily available in the literature. […]

[2] = test system: BALB/C mice; experiment: Test C: Peptide stimulated DTH (delayed type hypersensitivity) in BALB/C mice; type: in vivo; settings: ovalbumin DTH footpad swelling, 3-day osmotic mini-pumps
Method: Test C: Peptide stimulated DTH (delayed type hypersensitivity) in BALB/C mice. […] Balb/c female mice (18-20 g), 5 per group, were immunised sub-cutaneously on the flank with 0.1 ml of an emulsion of ovalbumin (Sigma) (2 mg/ml in saline) mixed 1:1 (v/v) with complete Freunds adjurant (Sigma). Seven days later footpad thickness was determined using a dual caliper micrometer followed by a challenge in one hind footpad with a 30 μl sub-plantar injection of 1% heat-aggregated ovalbumin protein in saline. Twenty-four hours after antigen challenge, footpads were measured and the DTH response calculated as the percentage increase in footpad thickness in the injected footpad compared to contralateral control. Inhibitors were adminstered by 3-day osmotic mini-pumps (Alzet) implanted 24 hours prior to antigen challenge at doses ranging from 10 mg/kg/day to 0.1 μg/kg/day. The degree of inhibition was calculated by substracting the value for swelling of inhibitor treated footpads from that of the vehicle dosed controls, dividing by the control value and multiplying by 100%.

Q: Which results are given for “Phv-Arg-Ala-IIb-Thr-Ala-Ala-Ala-Papa-NH2 [Example 1]”?
A: concentration showing significant binding to HLA-DR4Dw4 in Test A [1]: ≤ 0.1 µM; dose at which active in Test C [2]: < 0.1 mg/kg/day
